Assay results reported in article PMC11331526 (2024).

System: d(G5C5)2 (G5C5) (DNA, duplex) GGGGGCCCCC
Assay: emission titration, Bard fit
Settings: 50 mM potassium phosphate, pH 7, 298 K, table title per base pair, fit per nucleotide

Structure (SMILES)	Kb (site size 3.4, text prints 10^5)	Kb (site size 2.6, text error ±0.6)
[Ru+2].c1ccc2c(c1)ccc1nc3c4cccnc4c4ncccc4c3nc12.c1cnc2c(ccc3nccnc32)n1.c1cnc2c(ccc3nccnc32)n1	9.4(±1.2) × 10^6 M^-1	–
[Ru+2].c1ccc2cc3nc4c5cccnc5c5ncccc5c4nc3cc2c1.c1cnc2c(ccc3nccnc32)n1.c1cnc2c(ccc3nccnc32)n1	–	2.5(±0.4) × 10^6 M^-1
